Test results taken from US10653688B2, “6-(6-membered heteroaryl and aryl)isoquinolin-3-yl carboxamides and preparation and use thereof” (Samumed, LLC, priority 2017, dated 2020).
Read-outs that look alike come from different tables or passages of the source.

Legend:
[1] = system: LL29 cells (primary human fibroblasts derived from IPF patients), α-smooth muscle actin; assay: Inhibition of fibrotic process: TGF-β1-treated primary human fibroblasts, αSMA staining; assay type: cell-based; conditions: for EC50: TGF-β1 20 ng/mL, 4 days, % cells positive for αSMA; for inhibition at 10 µM: read-out: percent inhibition at 10 μM (given for EC50 >10 μM), TGF-β1, αSMA, 10 μM;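 on all read-outs here: controls were TGF-β1-stimulated wells with DMSO vehicle as the positive reference and cells given DMSO alone as the negative reference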
[2] = system: Wnt activity (SW480 colon carcinoma cells stably expressing the Sp5-Luc reporter gene); assay: Wnt activity screening assay (Sp5-Luc reporter gene assay); assay type: cell-based, human; conditions: for EC50: 36 to 48 hours; for inhibition at 10 µM: read-out: percent inhibition at 10 μM (given for EC50 >10 μM), 10 μM
Excerpt: The screening assay for Wnt activity is described as follows. Reporter cell lines can be generated by stably transducing cancer cell lines (e.g., colon cancer) or primary cells (e.g., IEC-6 intestinal cells) with a lentiviral construct that includes a Wnt-responsive promoter driving expression of the firefly luciferase gene.
SW480 colon carcinoma cells were transduced with a lentiviral vector expressing luciferase with a human Sp5 promoter consisting of a sequence of eight TCF/LEF binding sites. SW480 cells stably expressing the Sp5-Luc reporter gene and a hygromycin resistance gene were selected by treatment with 150 μg/mL of hygromycin for 7 days. These stably transduced SW480 cells were expanded in cell culture and used for all further screening activities. […] For Sp5-Luc reporter gene assays, the cells were plated at 4,000 cells/well in 384-well plates with a DMEM medium containing 1% fetal bovine serum, and 1% Penicillin-Streptomycin and incubated for 36 to 48 hours at 37° C. and 5% CO2. Following incubation, 15 μl of BriteLite Plus luminescence reagent (Perkin Elmer) was added to each well of the 384-well assay plates. The plates were placed on an orbital shaker for 2 min and then luminescence was quantified using the Envision (Perkin Elmer) plate reader. Readings were normalized to DMSO only treated cells, and normalized activities were utilized for EC50 calculations using the dose-response log (inhibitor) vs. response-variable slope (four parameters) nonlinear regression feature available in GraphPad Prism 5.0 (or Dotmatics).

[3] = system: IL-6 in human peripheral blood mononuclear cells (huPBMCs); assay: IL-6 inhibition in LPS-stimulated human peripheral blood mononuclear cells (HTRF); assay type: cell-based; conditions: for EC50: LPS 50 ng/mL, 22 hours, IL-6 HTRF; for inhibition at 10 µM: read-out: percent inhibition at 10 μM (given for EC50 >10 μM), LPS, IL-6, 10 μM
Procedure: Human Peripheral Blood Mononuclear Cells:
Fresh Normal PB MNC (Catalog # PB001, AllCells, Alameda, Calif.) were shipped overnight at 4° C. and resuspended in Roswell Park Memorial Institute (RPMI) 1640 Medium, with GlutaMAX Supplement (Catalog #61870127, ThermoFisher Scientific, Waltham, Mass.) supplemented with 1% Penicillin-Streptomycin (Catalog #15140163, ThermoFisher Scientific, Waltham, Mass.) and 1% fetal bovine serum (FBS) (Catalog #16140089, ThermoFisher Scientific, Waltham, Mass.) assay media.
Fresh normal human peripheral blood mononuclear cells (huPBMCs) were resuspended in 1% FBS-RPMI assay media with 1% Penicillin-Streptomycin 1% to a cell concentration of 1×10e6 cells/mL. […] 50 ng/mL of Lipopolysaccharides from Escherichia coli 0111:B4 (Catalog # L5293-2ML, Sigma-Aldrich, St. Louis, Mo.) was added after 2 hours and cells were incubated for another 22 hours at 37° C.-5% CO2. After 22 hour incubation, a mixture of anti-IL6 XL665 and anti-IL-6 Cryptate diluted in reconstitution buffer (Catalog #62IL6PEC, Cisbio Inc., Bedford, Mass.) was added to each well. Following incubation for 3 hours at room temperature, Homogeneous Time-Resolved Fluorescence (HTRF) was measured using the Envision (Perkin Elmer, Shelton, Conn.) at 665 nm and […]. The ratio of fluorescence at 665 nm to 620 nm was used as a readout for IL-6 quantification. All samples were processed in duplicate. Readings were normalized to DMSO treated cells and normalized activities were utilized for EC50 calculations. EC50 was determined using software generated by Dotmatics Limited (Windhill Bishops Stortford Herts, UK) using the Levenberg-Marquardt 4 parameter fitting procedure with finite different gradients.

[4] = system: SW480 colon carcinoma cells; assay: Cell viability assay (CellTiter-Glo); assay type: cell-based, human; conditions: for EC50: four days, CellTiter-Glo
Procedure: SW480 colon carcinoma cells were transduced with a lentiviral vector expressing luciferase with a human Sp5 promoter consisting of a sequence of eight TCF/LEF binding sites. SW480 cells stably expressing the Sp5-Luc reporter gene and a hygromycin resistance gene were selected by treatment with 150 μg/mL of hygromycin for 7 days. These stably transduced SW480 cells were expanded in cell culture and used for all further screening activities.
For the Cell Viability Assays, the cells were plated at 2,000 cells/well in 384-well plates with a DMEM medium containing 1% fetal bovine serum, and 1% Penicillin-Streptomycin and incubated for […] at 37° C. and 5% CO2. Eight replicates of DMSO-treated cells served as controls and cells treated with compound were performed in duplicate.
After incubation, 10 μL of CellTiter-Glo (Promega) was added to each well allowed to incubate for approximately 12 minutes. This reagent “results in cell lysis and generation of a luminescent signal proportional to the amount of ATP present. The amount of ATP is directly proportional to the number of cells present in culture, in agreement with previous reports. The CellTiter-Glo Assay generates a “glow-type” luminescent signal, produced by the luciferase reaction (Promega.com)”.

[5] = molecular target: recombinant DYRK1A kinase (Homo sapiens (Human), UniProt Q13627); assay: DYRK1A kinase assay (Ser/Thr 18 peptide Z-lyte, FRET)
[6] = molecular target: recombinant GSK3β kinase (Homo sapiens (Human), UniProt P49841); assay: GSK3β kinase assay (Ser/Thr 09 peptide Z-lyte, FRET); assay type: biochemical;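 further: FRET read-out as coumarin over fluorescein emission ratio, compounds incubated one hour at room temperature, IC50 from dose-response curve fit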
recombinant GSK3β kinase, sequence (P49841 whole entry): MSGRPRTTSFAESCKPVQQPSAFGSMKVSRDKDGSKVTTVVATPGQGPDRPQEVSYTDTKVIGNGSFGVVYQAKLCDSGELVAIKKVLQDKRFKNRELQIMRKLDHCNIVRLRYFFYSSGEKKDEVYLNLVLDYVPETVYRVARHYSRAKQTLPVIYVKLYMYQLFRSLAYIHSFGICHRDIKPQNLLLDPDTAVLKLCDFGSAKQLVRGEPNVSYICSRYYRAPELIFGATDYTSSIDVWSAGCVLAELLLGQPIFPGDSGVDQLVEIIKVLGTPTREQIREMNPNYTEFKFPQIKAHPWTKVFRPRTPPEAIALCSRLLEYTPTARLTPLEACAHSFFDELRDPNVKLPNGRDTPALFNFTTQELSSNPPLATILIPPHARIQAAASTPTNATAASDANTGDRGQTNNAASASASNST

[7] = DYRK1A kinase, head says EC50, method says IC50, ATP 30 μM
[8] = GSK3β kinase, head says EC50, method says IC50, ATP 46 μM

Row | EC50 ([2]; Homo sapiens) [nM] | EC50 ([3]; Homo sapiens, PBMC) [nM] | EC50 ([4]; Homo sapiens, 96 h) [nM] | EC50 [5, 7] [nM] | EC50 [6, 8] [nM] | EC50 [5] [nM] | EC50 [6] [nM] | Compound | EC50 ([1]; Homo sapiens, Fibroblast, 96 h) [nM] | inhibition at 10 µM ([2]; Homo sapiens) [%] | inhibition at 10 µM ([4]; Homo sapiens, read-out: percent inhibition at 10 μM (given for EC50 >10 μM), 10 μM) [%] | inhibition at 10 µM ([3]; Homo sapiens, PBMC) [%] | inhibition at 10 µM ([1]; Homo sapiens, Fibroblast) [%] | EC50 [1] [nM] | EC50 [2] [nM] | EC50 [3] [nM] | EC50 [4] [nM]
1 | > 10000 | > 10000 | 9520 | 11 | > 10000 | – | – | CN1CCN(c2cc(C(=O)Nc3cc4cc(-c5cncc(F)c5)ccc4cn3)ccn2)CC1 [Compound 24, N-(6-(5-Fluoropyridin-3-yl)isoquinolin-3-yl)-2-(4-methylpiperazin-1-yl) isonicotinamide] | 2770 | 20.2 | – | 2.8 | – | – | – | – | –
2 | > 10000 | > 10000 | 8870 | > 10000 | > 10000 | – | – | CN1CCN(c2cc(C(=O)Nc3cc4cc(-c5cncc(Cl)c5)ccc4cn3)ccn2)CC1 [Compound 25, N-(6-(5-Chloropyridin-3-yl)isoquinolin-3-yl)-2-(4-methylpiperazin-1-yl) isonicotinamide] | > 10000 | 8.9 | – | 4.6 | 44.8 | – | – | – | –
3 | 1040 | 2140 | 1190 | 4 | > 10000 | – | – | COc1cncc(-c2ccc3cnc(NC(=O)c4ccnc(N5CCN(C)CC5)c4)cc3c2)c1 [Compound 34, N-(6-(5-Methoxypyridin-3-yl)isoquinolin-3-yl)-2-(4-methylpiperazin-1-yl) isonicotinamide] | 507 | – | – | – | – | – | – | – | –
4 | 1380 | 1010 | 1160 | 10 | > 10000 | – | – | O=C(Nc1cc2cc(-c3cncc(OC4CCNCC4)c3)ccc2cn1)c1ccc(F)cc1 [Compound 35, 4-Fluoro-N-(6-(5-(piperidin-4-yloxy)pyridin-3-yl)isoquinolin-3-yl) benzamide] | 2800 | – | – | – | – | – | – | – | –
5 | 379 | 1220 | 493 | 2 | 8860 | – | – | Nc1cncc(-c2ccc3cnc(NC(=O)c4ccc(F)cc4)cc3c2)c1 [Compound 36, N-(6-(5-Aminopyridin-3-yl)isoquinolin-3-yl)-4-fluorobenzamide] | 292 | – | – | – | – | – | – | – | –
6 | 109 | 662 | 81 | 1 | 4620 | – | – | Nc1cncc(-c2ccc3cnc(NC(=O)c4ccc(OC5CCNCC5)cc4)cc3c2)c1 [Compound 37, N-(6-(5-Aminopyridin-3-yl)isoquinolin-3-yl)-4-(piperidin-4-yloxy) benzamide] | > 10000 | – | – | – | 39.5 | – | – | – | –
7 | 75 | 765 | 225 | – | – | 2 | > 10000 | CN1CCN(c2cc(C(=O)Nc3cc4cc(-c5cncc(N)c5)ccc4cn3)ccn2)CC1 [Compound 38, N-(6-(5-Aminopyridin-3-yl)isoquinolin-3-yl)-2-(4-methylpiperazin-1-yl) isonicotinamide] | 603 | – | – | – | – | – | – | – | –

Further lines, the compound ahead of its results:

Row | Compound | EC50 ([2]; Homo sapiens) [nM] | EC50 ([3]; Homo sapiens, PBMC) [nM] | EC50 ([4]; Homo sapiens, 96 h) [nM] | EC50 [5, 7] [nM] | EC50 [6, 8] [nM] | EC50 [5] [nM] | EC50 [6] [nM] | EC50 ([1]; Homo sapiens, Fibroblast, 96 h) [nM] | inhibition at 10 µM ([2]; Homo sapiens) [%] | inhibition at 10 µM ([4]; Homo sapiens, read-out: percent inhibition at 10 μM (given for EC50 >10 μM), 10 μM) [%] | inhibition at 10 µM ([3]; Homo sapiens, PBMC) [%] | inhibition at 10 µM ([1]; Homo sapiens, Fibroblast) [%] | EC50 [1] [nM] | EC50 [2] [nM] | EC50 [3] [nM] | EC50 [4] [nM]
8 | CN1CCN(c2cc(C(=O)Nc3cc4cc(-c5cc(N)cc(F)c5)ccc4cn3)ccn2)CC1 [Compound 1, N-(6-(3-Amino-5-fluorophenyl)isoquinolin-3-yl)-2-(4-methylpiperazin-1-yl) isonicotinamide] | 4010 | 7160 | 5860 | 75 | > 10000 | – | – | 2300 | – | – | – | – | – | – | – | –
9 | CC(C)Nc1cc(F)cc(-c2ccc3cnc(NC(=O)c4ccnc(N5CCN(C)CC5)c4)cc3c2)c1 [Compound 2, N-(6-(3-Fluoro-5-(isopropylamino)phenyl)isoquinolin-3-yl)-2-(4-methylpiperazin-1-yl)isonicotinamide] | 2050 | 1330 | 1380 | 354 | > 10000 | – | – | 884 | – | – | – | – | – | – | – | –
10 | CN1CCN(c2cc(C(=O)Nc3cc4cc(-c5ccccn5)ccc4cn3)ccn2)CC1 [Compound 4, 2-(4-Methylpiperazin-1-yl)-N-(6-(pyridin-2-yl)isoquinolin-3-yl) isonicotinamide] | > 10000 | 6750 | > 10000 | – | – | 242 | > 10000 | 3750 | 3.3 | 21.3 | – | – | – | – | – | –
11 | CN1CCN(c2cc(C(=O)Nc3cc4cc(-c5ccncc5)ccc4cn3)ccn2)CC1 [Compound 5, 2-(4-Methylpiperazin-1-yl)-N-(6-(pyridin-4-yl)isoquinolin-3-yl) isonicotinamide] | > 10000 | > 10000 | 9460 | – | – | 18 | > 10000 | 2450 | 38.5 | – | 4.1 | – | – | – | – | –
12 | CN1CCN(c2cc(C(=O)Nc3cc4cc(-c5cccnc5)ccc4cn3)ccn2)CC1 [Compound 13, 2-(4-Methylpiperazin-1-yl)-N-(6-(pyridin-3-yl)isoquinolin-3-yl) isonicotinamide] | 159 | 2820 | 324 | – | – | 3 | > 10000 | 805 | – | – | – | – | – | – | – | –
13 | CN1CCN(CC(=O)Nc2cc3cc(-c4ccc(C(F)(F)F)nc4)ccc3cn2)CC1 [Compound 30, 2-(4-Methylpiperazin-1-yl)-N-(6-(6-(trifluoromethyl)pyridin-3-yl)isoquinolin-3-yl)acetamide] | 9690 | > 10000 | 8700 | > 10000 | > 10000 | – | – | > 10000 | – | – | 5.2 | 24.9 | – | – | – | –
14 | CC(C)Nc1cncc(-c2ccc3cnc(NC(=O)C4CCN(CCF)CC4)cc3c2)n1 [Compound 89, 1-(2-Fluoroethyl)-N-(6-(6-(isopropylamino)pyrazin-2-yl)isoquinolin-3-yl) piperidine-4-carboxamide] | – | – | – | – | 14 | – | – | – | – | – | – | – | 3910 | 178 | 390 | 447
15 | CC(C)CCN1CCC(C(=O)Nc2cc3cc(-c4cncc(NC(C)C)n4)ccc3cn2)CC1 [Compound 91, 1-Isopentyl-N-(6-(6-(isopropylamino)pyrazin-2-yl)isoquinolin-3-yl) piperidine-4-carboxamide] | – | – | – | – | – | – | – | – | – | – | – | – | 19 | 718 | 446 | 6890
